2 compounds from paper PMC12164071, “Lysine targeting covalent inhibitors of malarial kinase PfCLK3” (RSC Medicinal Chemistry, 2025) can be followed below.

Data set [1] in a line: Human cell viability assay (resazurin). The following applies: HepG2, 48 hours, errors SD, N ≥ 3. The procedure: Cytotoxicity was assessed in HepG2 cells to complement the selectivity evaluations (Fig. 7). […]
Human cell viability assay.
Mycoplasma tested HepG2 cells were cultured in Dulbecco’s Modified Eagle Medium
(DMEM) with 10% fetal bovine serum, 1% non-essential AA, 1% sodium pyruvate, 1% Pen-
strep and 100ug/mL Normocin. Cultures were incubated at 37 ℃, 5% CO2. Cells were
detached using 0.05% trypsin-EDTA. 500nL of drug compound dilutions, in triplicate, were
added to 384-well, black, clear bottom assay plates using a Mosquito liquid handling
machine. Assay plates, containing compound dilutions, were seeded at 5,000 cells/well and
incubated for 48 hours. 40uM final concentration resazurin, diluted in DPBS, was added to
the assay plates which were then incubated for 4 hours and analysed using a ClariostarTM
plate reader to measure fluorescence Intensity (545-20nm/600-40nm). 3 control compounds
were included on every assay plate, Tamoxifen, Puromycin and TCMDC-135051. Maximum
signal control was obtained from wells with DMSO only and minimum signal control with
Tamoxifen 100uM. These were used to normalise data and give percentage inhibition of
metabolic activity. Experiments were performed N=3 and normalised data was grouped and a
nonlinear regression curve with four parameters was plotted using GraphPad Prism,
generating activity data. […]
For orientation: Alamar Blue is a resazurin reagent that responds to reducing activity.

Another data set relates to PfCLK3. Nature of the data set: Tryptic digest and tandem mass spectrometry of PfCLK3 adducts. Particulars: PfCLK3 pretreated with compound, trypsin digest, tandem MS. In kind it is binding, Plasmodium falciparum. The source says: PfCLK3 pretreated with either compound 4 or 9 was then digested with trypsin, and the resulting tryptic peptides analysed by tandem mass spectrometry (Fig. 4d and e). This subset of compounds sampled azaindole regioisomers as well as both aldehyde warheads used. […] However, possible modification of a peptide containing Lys494 and Lys503 was also observed. This is a curious result, as a secondary adduct was not observed in the intact spectrum. Lys503 is distal from the ATP binding site, whereas Lys494 lies at its entrance. Adduct formation may be occurring with Lys494 as 4 approaches the binding-site.
This is consistent with the intact mass spectrum, which detected a doubly modified species in ∼20% abundance versus the singly modified protein. […]
For intact protein mass spectrometry, compounds were incubated with a 5-fold excess of compound in buffer containing 20 mM HEPES pH 7.4, 150 mM NaCl, 1 mM TCEP, and 1 mM MgCl 2. […] Samples were incubated at room temperature for 4 hours before 10 μL alliquots were analysed by LC-MS. […]
The resulting peptide mixture was analyzed by high resolution nESI FT-ICR MS using a 12 Telsa Solarix 2XR mass spectrometer (Bruker Daltonics) equipped with a nanomate infusion robot (Advion Biosciences). […]

As for `CCN(CC)Cc1ccc(OC)c(-c2cc3c(-c4ccc(O)c(C=O)c4)ccnc3[nH]2)c1` [Compound 4], the CC50 at 48 h in data set [1] (CC50 (HepG2)) was 5.25 ± 2.47 µM; in data set [1] (pCC50 (HepG2)) it was 5.25 µM. Further, in the data set with PfCLK3, the site of modification entry is listed as “Lys394 was the predominant site of modification”.
On to `C#Cc1ccc(-c2c[nH]c3ncc(-c4cc(CN(CC)CC)ccc4OC)cc23)cc1C=O` [Compound 9], for which the CC50 at 48 h in data set [1] (CC50 (HepG2)) was 7.94 ± 1.29 µM; in data set [1] (pCC50 (HepG2)) it was 7.94 µM. For the same compound, in the data set on PfCLK3, the site of modification result was “pyridinium modification was observed in peptides containing both the target Lys394, and Lys373”.

What is called CC50 is the concentration giving 50% cytotoxicity. Higher therefore signals better tolerance by the cells.
